Consider five compounds from ChEMBL document CHEMBL1124222 (J Med Chem, 1988).

By Ki is commonly meant a dissociation constant, usually derived from enzyme kinetics or from competition with a known ligand.

For one assay, the target named is T1, D(2) dopamine receptor (Rattus norvegicus, UniProt P61169). As to the kind of experiment: Inhibitory constant against binding of [125I]- IBZM to rat striatal membrane. Further details: species or system Striatum.
T1 sequence (P61169 whole entry): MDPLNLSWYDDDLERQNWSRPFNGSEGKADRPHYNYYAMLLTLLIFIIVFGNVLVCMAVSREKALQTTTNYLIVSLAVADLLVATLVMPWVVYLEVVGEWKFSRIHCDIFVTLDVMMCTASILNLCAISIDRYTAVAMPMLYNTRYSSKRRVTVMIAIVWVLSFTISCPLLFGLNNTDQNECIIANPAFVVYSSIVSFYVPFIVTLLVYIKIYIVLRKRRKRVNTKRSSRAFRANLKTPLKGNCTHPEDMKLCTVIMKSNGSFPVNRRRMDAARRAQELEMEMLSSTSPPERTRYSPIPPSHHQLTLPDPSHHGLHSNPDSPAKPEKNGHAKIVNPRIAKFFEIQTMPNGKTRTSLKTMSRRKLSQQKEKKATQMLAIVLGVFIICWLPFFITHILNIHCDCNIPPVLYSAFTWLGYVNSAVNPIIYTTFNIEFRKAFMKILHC
For `CCN1CCC[C@@H]1CNC(=O)c1c(OC)ccc(I)c1O`, the Ki was 0.0303 µM.
In turn, `CCN1CCC[C@H]1CNC(=O)c1c(O)cccc1OC` returned an inhibitory constant (Ki) of 0.0311 µM.
Consider `CCN1CCC[C@H]1CNC(=O)c1c(OC)ccc(I)c1O` [IOLOPRIDE], for which the inhibitory constant (Ki) was determined as 0.000633 µM.
With `O=C(c1ccc(F)cc1)C1CCN(CCn2c(=O)[nH]c3ccccc3c2=O)CC1` [KETANSERIN], the Ki stood at 0.359 µM.

The next assay addresses T1, D(2) dopamine receptor. In words: Affinity constant of compound was evaluated in rat striatum tissue preparation. The assay is classed as tissue-based.
Regarding `CCN1CCCC1CNC(=O)c1c(OC)ccc(I)c1O` (stereo unspecified), the Ki was 0.00043 µM.
The same measure, in the same setting: then `CCN1CCC[C@H]1CNC(=O)c1c(O)cccc1OC`, with 0.0311 µM.
